According to patent US8119684B2, “Thiophene derivatives for up-regulating HLA-DM activity” (Dana-Farber Cancer Institute, Inc., priority 2003, dated 2012):

How the values were obtained:
[1] = biological target: T1, HLA-DM catalyzed peptide exchange on HLA-DR2 (Homo sapiens, UniProt P28067+P28068); assay: Dissociation assay: MBP peptide dissociating from HLA-DR2 in the presence of HLA-DM and 100-fold excess unlabeled MBP; type: biochemical; details: FIG. 5, F15 versus DMSO
T1 construct: made in house; host or cells: HLA-DM: S2 insect cells; HLA-DR2b: COS cells; peptides synthesized by New England Peptide, Inc
T1 sequence (P28067 27-233 limits assumed): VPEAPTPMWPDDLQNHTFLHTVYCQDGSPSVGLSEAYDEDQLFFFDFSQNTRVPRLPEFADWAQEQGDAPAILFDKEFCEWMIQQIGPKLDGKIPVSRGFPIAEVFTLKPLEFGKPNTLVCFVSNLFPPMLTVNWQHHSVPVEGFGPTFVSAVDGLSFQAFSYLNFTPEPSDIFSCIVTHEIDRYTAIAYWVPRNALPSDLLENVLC
T1 sequence (P28068 19-218 limits assumed): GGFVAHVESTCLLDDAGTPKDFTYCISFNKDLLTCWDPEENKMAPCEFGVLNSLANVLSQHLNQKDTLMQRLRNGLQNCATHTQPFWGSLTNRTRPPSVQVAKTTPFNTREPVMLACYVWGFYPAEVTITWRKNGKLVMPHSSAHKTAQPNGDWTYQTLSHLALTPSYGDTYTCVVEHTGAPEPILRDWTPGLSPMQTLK
Text: FIG. 5b illustrates graphically a dissociation assay of MBP peptide dissociating from HLA-DR2 in the presence of HLA-DM and 100-fold excess unlabeled MBP in the peptide for both F15 and DMSO;
FIGS. 5a and 5b graphically illustrate the dose reponse curve for compound F15 for disassociation (5a) and association (5b) assays.

[2] = biological target: T1, HLA-DM catalyzed peptide exchange on HLA-DR2; assay: Antigen Presentation Screen: fluorescence polarization association assay of Alexa 488-labeled MBP 85-99 binding to HLA-DR2b/CLIP in the presence of HLA-DM; type: biochemical
Text: In one detailed aspect of the invention, an assay is described below for detecting and monitoring HLA-DM catalyzed peptide exchange. In particular, the kinetics of peptide exchange can be evaluated and the effects on such kinetics of test compounds can be evaluated. A labeled peptide, such as a fluorescently labled MBP peptide, can be visualized binding to isolated HLA-DR2 in the presence of HLA-DM by Fluorescence Polarization (FP). FP can detect the motion of a fluorescently labeled peptide such as MBP (85-99). The FP detected increases when a fluorescently labeled peptide binds to a receptor. This assay may allow peptide binding to HLA-DR2 to be monitored in real time without interrupting the reaction. In this manner, a number of readings can be made at different times during a single assay. This can provide information about the rate of transfer of a peptide, leading to the identification of compounds that increase or decrease the rate of peptide exchange. It may also lead to the identification of compounds that decrease the rate of peptide exchange by directly preventing peptide binding to MHC class II.
In the assay described below (Antigen Presentation Screen), Fluorescence Polarization (FP) can be used to monitor the kinetics, including the exchange rate, of exchanging CLIP for myelin basic protein (MBP) peptide on isolated HLA-DR2. MBP peptide consisting of amino acids 85-99 of Myelin Basic Protein is labeled with the fluorescent dye Alexa 488 at the P5 position. The CLIP may be unlabled. A system of isolated HLA-DR2 containing CLIP and labeled MBP peptide are incubated in the presence of HLA-DM. The system may be exposed to test compounds and FP can be used to measure the rate of exchange of CLIP for MBP for each test compound, including a control. A change in fluorescence polarization is monitored and/or recorded using a 485 nm excitation filter and a 530 nm emission filter in a LJL Analyst. Fluorescence readings taken at time intervals can indicate how fast CLIP is being exchanged for MBP in the presence of HLA-DM.
Proteins: HLA-DR2b containing the CLIP peptide in PBS buffer synthesized by COS cells with covalently linked CLIP peptide. The linker is cut with the addition of 25 U/ml of Thrombin (Novagen 69671) (2 hr incubation at 37° C.) and blocked with Pefablock (Roche 1429-868).
HLA-DM in PBS buffer, synthesized in S2 insect cells. Purified on a anti-FLAG column with a high pH elution (50 mM CAPS pH 11.5)
Peptides: MBP 85-99 (Alexa 488 at P5 position) in H2O
• 1. Add 0.4 μl of library compound in 100% DMSO to wells (see FIG. 7) containing HLA-DR2b. (Library compounds at 50 mM). Also add 0.4 μl DMSO to all control wells during this step. This step can be carried out days before screening commences. • 2. Add 35 μl of 50 mM Citrate pH5.2/150 mM NaCl buffer to wells M23, […], N23 and N24. Add 40 μl of 50 mM Citrate pH 5.2/150 mM NaCl buffer to wells O23, O24, P23 and P24. Add 35 μl of 114 nM HLA-DR2b in 50 mM Citrate pH 5.2/150 mM NaCl buffer to appropriate wells in 384 well plate as shown below in FIG. 9. Make 114 nM HLA-DR2b solution fresh and keep cold until just before addition of library compounds • 5. By hand add 1 μl of MBP 85-99 (unlabeled) titration to control wells as described below in FIG. 10. • 6. Mix HLA-DR2b and compound by shaking with plate shaker for 1 minute. • 7. Incubate HLA-DR2b and compound for 30 minutes at room temperature. • 8. By hand add 5 μl of 80 nM MBP 85-99 (Alexa 488 at P5 position) to control wells (FIG. 11) as described below while plate is incubating at room temperature. • 9. During 30 minute incubation read plates for Fluorescent Intensity using the Analyst (Molecular Devices) Parameters described below. This step is optional if Fluorescent Intensity references have already been read for the compounds being screened. • 10. Add 5 p. 1 of MBP/DM mix (80 nM MBP 85-99 (Alexa 488 at P5 position)/800 nM HLA-DM in 50 mM Citrate pH 5.2/150 mM NaCl buffer) to begin reaction. […]

- increase in binding (FP) compared to the control ([2]; 30 minute sampling time, FIG. 3): about 25%
- acceleration of peptide exchange over the control (factor) ([2]; F15 at 10 uM, FIG. 4): 3
- Vmax (initial velocity of MBP/HLA-DR2 binding) ([2]; F15 at 10 uM, increasing levels of DR2b, HLA-DM present, FIG. 4, control Vmax 0.02521): 0.07611
- concentration at which a significant increase in the rate of peptide exchange is seen (as low as) ([2]; association assay, FIG. 3, various concentrations of F15): 1 µM
- total amount of peptide exchange compared to the control ([2]; over a 6 hour period, FIG. 3): about equal
Compound: N#CC1=C(SC2CCCCC2)CC(C(=O)O)=C1c1ccc(Cl)cc1 [Compound F15]
- dose response curve, dissociation assay [1]: substantial effect even at very low concentrations
- dose response curve, association assay ([2]; FIG. 5, F15 versus DMSO): substantial effect even at very low concentrations
